Assays:
[1] = test system: MDA-MB-231; test: Cell viability (MTT assay) in TNBC cell line MDA-MB-231; format: cell-based; conditions: MDA-MB-231, MTT assay, 72 hours, mean ± s.e.m., n = 3
Description: Cell Culture. All cell lines were purchased from ATCC and routinely grown in a humidified incubator at 37° C. with 5-10% CO2. MDA-MB-468, MDA-MB-231, MDA-MB-175, MRCS, RPE-NEO, HCT116, and K562N were grown in DMEM supplemented with 10% FBS, 1% amphotericin and 1% penicillin/streptomycin. A2780 cells were grown in RPMI supplemented with 10% FBS, 1% amphotericin, and 1% penicillin/streptomycin, and 4 mM glutamine. All supplements along with PBS and trypsin-EDTA were purchased from Corning Inc. and used as is.
Cell Viability of AuTri-1-10 (Adherent Cell Lines). The cell viability of all 10 complexes were performed in MDA-MB-231. Additionally, AuTri-9 was evaluated in the following: MDA-MB-175, MA-MB-468, A2780, HCT116, OVCAR8 and MRCS. Cells were grown to confluency and trypsin was added to detach and harvest cells. The cells were washed with 2 mL of PBS and suspended in 10 mL of the appropriate media. The cells were centrifuged at 2000 rpm for 5 minutes and the pellet washed with 2 mL of PBS then suspended in 5 mL of the appropriate media. The cells were plated at a density of 2,000 cells/well in a 96-well clear bottom plate and allowed to adhere overnight at 37° C. with 5-10% CO2. The compounds were prepared as a stock in DMSO and used fresh. The compounds were added at seven concentrations (<1% DMSO) with a 3× serial dilution starting at 50 μM for the highest concentration and incubated at 37° C. for 72 h with 5-10% CO2. 1% DMSO were added to control wells as the vehicle control. The medium was removed and a solution of MTT (100 μL, prepared by dissolving MTT at 5 mg/mL and diluting by 10x with DMEM) was added to each well and incubated for 4 h at 37° C. with 5-10% CO2. The dye was removed from each well and 100 μL of DMSO was added to induce cell lysis. The plates were read using a Genios plate reader (λ=570 nm).

[2] = based on gold; cited from earlier work
[3] = test system: MDA-MB-231; test: Transmission electron microscopy of mitochondrial morphology; format: cell-based; conditions: AuTri-9 10 μM for 1 h
Description: Transmission Electron Microscopy. MDA-MB-231 cells were seeded in 6 well plates and allowed to grow to 85% confluency. The cells were then treated with AuTri-9 at a concentration of 10 μM (<1% DMSO) for 1 h at 37° C. Growth media were removed and immediately and added 3% glutaraldehyde at 4° C. in 0.1 M Sorenson's or Cacodylate Buffer. After 5 minutes remove fix and replace with fresh fixative, leave for 45 min-1 hr at 4° C., washed in 0.1 M buffer w/5% sucrose 4×, 5 minutes each. Post fix, the cells were stained with 1% OsO4 in 0.1 M buffer for 1 hr at 4° C. and washed in 0.1 M buffer 1×. The cells were dehydrated in graded ethanols, 5 minutes each, from 50% through 100% and absolute ethanol (2×) at 4° C. After the last alcohol wash remove the residual alcohol with a small pipette and immediately add straight resin (14.5 g Eponate 12, 8.0 g DDSA, 7.15 g NMA, and 0.85 gm BDMA) to the dish. Swirl the dish and then remove as much of the resin, (which may contain residual alcohol), with a plastic pipette being careful not to disturb the cell layer. Then add straight resin 2× for 1-2 hours and place under the lamp, on a shaker. Pour off the 2nd straight resin wash, let the plate drain well (leaving a layer of resin on the bottom) and invert labeled beem capsules into each well that have had the conical ends removed. […]

c1cnc2c(c1)ccc1cccnc12 [1,10-phenantrholine]
IC50 ([1]; Homo sapiens): 7.21 ± 1.68 µM

Cc1ccnc2c1ccc1c(C)ccnc12 [4,7-dimethylphenanthroline]
IC50 ([1]; Homo sapiens): 14.1 ± 2.58 µM

CC(=O)OC[C@H]1O[C@@H]([S-])[C@H](OC(C)=O)[C@@H](OC(C)=O)[C@@H]1OC(C)=O.CCP(CC)CC.[Au+] [Auranofin]
IC50 [1]: 1.31 ± 0.15 µM
MTD (maximum tolerated dose) [2]: 12 mg/kg

c1ccc(-c2ccnc3c2ccc2c(-c4ccccc4)ccnc23)cc1 [Bathophenanthroline]
IC50 [1]: 7.48 ± 1.64 µM

c1ccc(-c2ccccn2)nc1 [Bipyridine]
IC50 [1]: 17.5 ± 0.354 µM

N.N.[Cl][Pt][Cl] [Cisplatin]
IC50 [1]: 34.6 ± 0.783 µM

OO [H2O2, hydrogen peroxide]
mitochondrial morphology by TEM [3]: distinct cytoplasmic swelling and membrane rupture (white star) is observed; however, the mitochondria structure remains intact

[F][Sb-]([F])([F])([F])([F])[F].[Na+] [NaSbF6]
IC50 [1]: > 50 µM

CN[C@@H]1C[C@H]2O[C@@](C)([C@@H]1OC)n1c3ccccc3c3c4c(c5c6ccccc6n2c5c31)C(=O)NC4 [staurosporine]
mitochondrial morphology by TEM [3]: no distinct morphological changes to mitochondria

From patent US20240174703A1, “THREE-COORDINATE AU(I) PROBES AND USE IN SELECTIVELY DISRUPTING MITOCHONDRIA IN CANCER CELLS” (University of Kentucky Research Foundation, priority 2021, published 2024)
